In patent US7132286B2, “Method for neural stem cell differentiation using valproate” (Psychiatric Genomics, Inc., priority 2001, dated 2006):

How the values were obtained:
rat cortical stem cells [1] = assay: Neuronal differentiation of rat cortical stem cells (β-tubulin III immunofluorescence, cell counting); format: cell-based; settings: rat cortical stem cells; for effect on neuronal differentiation (percentage of β-tubulin-III expressing cells) in words: 6 days, vs control; for percentage of β-tubulin III expressing neurons (mean+SD): daily treatment 6 days, 10 ng/ml BDNF, 20 ng/ml NT-3, untreated control 6.2+1.8%
Description: Isolation of cortical and striatal stem cells. Timed pregnant Sprague Dawley rats were obtained from Taconic at embryonic age E14–E15 were sacrificed by inhalation of excess carbon dioxide. The abdomen of the rat was cleaned with 70% ethanol and the uterus was removed quickly and aseptically on the bench top. The uterus was placed in ice cold HBSS (GIBCO Cat. #20012-027) in a 10 cm petridish. After rinsing the uterus in PBS, embryos were removed from the uterus, rinsed in HBSS and collected in cold HBSS (buffered with HEPES and sodium bicarbonate) in a 10 cm petridish and placed on ice.
Plating, expansion and passaging of cortical and striatal stem cells. A generous amount of the triturated cell suspension was left in the original 15 ml tube to avoid fibroblast contamination in cultures. About 4–5 ml of the 6 ml of cells suspension was used for plating. Cells were plated at a concentration of 1.3×10^3 cells to 3.0×10^3 per cm^2 in 100 mm dish. This culture is designated P0 (passage 0).
(§1) Following plating cells were expanded for about 3–4 days (Passage 1, P1). Cells were treated daily with 10 ng/ml bFGF. The cultures were never permitted to reach more than 70% confluency. Cultures were then passaged as follows: 10 ml of HBSS without Ca^2+ and Mg^2+ was added to each 100 mm dish and the cells incubated at 37° C. for 5–15 minutes, or until sufficient numbers of the stem cells were rounded up. It is not expected that all cells in the culture will round up as there are several cell types in the culture at P0. The pH of the HBSS should be neutral at all times during this incubation. Cells were then removed from the dish by pipetting with a 5 ml pipette, and collected in a 15 or 50 ml conical tube, and centrifuged at 1000 g for 5 minutes. Cells were gently re-suspended in medium, counted, and plated at a density of 1×10^6 cells in 10 cm dishes and expanded for about 2 days in bFGF (Passage 1, P1). At that time the cells were passaged as described and plated onto pre-coated poly-L-ornithine/fibronectin vessels at concentrations indicated below for each experiment. Cells were treated with bFGF for 2 additional days. Before each treatment the bFGF was removed from the cells by washing twice with DMEM/F 12 to induce cell differentiation. For neurite outgrowth experiments, cells were seeded at 5×10^3 cells/well in 24-well plates and treated immediately.
(§2) Drug treatment. For immunofluorescence and Western analysis, cells were treated daily with either 0.5 mM of valproate (Sigma), 10 ng/ml of BDNF (R & D Systems), 20 ng/ml of NT-3 (R & D Systems), 1 nM 9cis retinoic acid (Sigma) or a dilution of NCM for 6 or 7 days. In some experiments valproate was also added with NCM and/or 9cis RA for 7 days. For human stem cell experiments, valproate (0.5 mM) or BDNF (25 ng/ml) was added for 9 days. For neurite outgrowth experiments, cells were treated for 1 day with 0.5 mM valproate or 50 ng/ml of BDNF. Where applicable, medium was changed every 2 days. After about 5–10 days, preferably on day 6 (i.e., after 6 days of drug exposure) the cells were fixed with a 4% solution of para-formaldehyde (PFA) in PBS, prepared as follows:
Immunofluorescent staining and visualization. Cells were plated at 20,000 cells/well in poly-L-ornithine/fibronectin (1 mg/ml) coated 24-well plates. After fixation, the PBS was aspirated from the fixed cells and the cells were treated with blocking solution (10% normal goat serum-NGS-Jackson Labs), 0.3% Triton-Sigma, in PBS) to saturate non-specific sites and permeabilize the cells. […]

[2] = literature; cited from earlier work
[3] = literature; cited from earlier work; remark: listed apart in the source
[4] = test system: human striatal stem cells (line 161); assay: Neuronal differentiation of human striatal stem cells (β tubulin III neurons, total cells); format: cell-based; settings: 9 days, 0.5 mM valproate, BDNF 25 ng/ml, untreated control 40%
Protocol: Expansion and differentiation of striatal human stem cells. Human stem cells were provided from ReNeuron Inc. (U.K.). Striatum was obtained after 6 to 12 weeks of gestation from routine legal abortion. Cell line was provided by ReNeuron at passage 16. The stem cells were expanded in untreated 25 cm^2 tissue culture flasks (Nunc, USA) in the presence of 20 ng/ml and 10 ng/ml of human recombinant EGF and bFGF respectively, in NSA basal serum-free medium (Euroclone, U.K). Fresh medium and growth factors were added every 3 days. In these conditions stem cells were growing as floating neurospheres. After 4 weeks, the neurospheres were harvested, treated with a mild papain treatment in HBSS and dissociated into a single cell suspension. Cells were counted and viability was estimated by trypan blue exclusion method. Cells were differentiated by growth factors removal. The cells were plated in NSA medium at 20,000 cells/well on LabTek permanox culture slides of 8 wells precoated with laminin (1 μg/ml). Cells were treated with valproate and BDNF for 9 days at 37° C. and a saturated humidified atmosphere of 5% CO2, 1% O2 and 94% N2. Fresh medium and re-treatment with factors was performed every 3 days.
as §2
Immunofluorescent staining and visualization. Cells were plated at 20,000 cells/well in poly-L-ornithine/fibronectin (1 mg/ml) coated 24-well plates. […]
For counting, three to five different fields of interest at magnification 10× or 20× were chosen randomly. For immunofluorescence, 3 different black and white pictures were taken by field of interest with a digital camera CoolSnap Fx (Princeton) corresponding to the exposure of Cy2, Cy3 and Hoechst fluorescence. […] The percentage of neurons, astrocytes and GABAergic cells was determined by comparing the number of cells immunopositive for β-tubulin III, GFAP and GABA to the number of bis-benzamide stained nuclei (i.e., total cell number). […]

rat cortical stem cells [5] = assay: Neurite outgrowth of neurons derived from rat cortical stem cells (ArrayScan neurite outgrowth index); format: cell-based; settings: 1 day; 0.5 mM valproate, 50 ng/ml BDNF; control 35.1+0.3
Protocol: as §1, with “At that time the cells were passaged as described and plated onto pre-coated poly-L-ornithine/fibronectin vessels at concentrations indicated below for each experiment. Cells were treated with bFGF for 2 additional days. Before each treatment the bFGF was removed from the cells by washing twice with DMEM/F 12 to induce cell differentiation. For neurite outgrowth experiments, cells were seeded at 5×10^3 cells/well in 24-well plates and treated immediately.” left out
For analysis of neurite outgrowth, digital images were taken with an ArrayScan HCS System (Cellomics, Pa.) of 100 cells/well treated with valproate (0.5 mM) and BDNF (50 ng/ml) for 1 day. […] Neurite outgrowth index is defined as the percentage of cells whose neurites total more than 20 μm in length, and is calculated using Cellomics' Neurite Outgrowth application.

| Molecule | effect on proliferation and differentiation [2] | teratogenic activity [3] | other results |
| --- | --- | --- | --- |
| CC1=C(/C=C/C(C)=C\C=C\C(C)=C\C(=O)O)C(C)(C)CCC1 [9-cis RA, 9-cis retinoic acid] |  |  | neuronal differentiation compared to control, in words (rat cortical stem cells [1]; daily treatment 7 days, 0.5 mM valproate, 0.5× NCM, 1 nM 9-cis RA): increased the neuronal differentiation |
| C#CCC(CCC)C(=O)O (stereo not drawn) [R-4-yn-valproate] | have not been shown to affect differentiation | Non-teratogenic |  |
| CCCCC(CC)C(=O)O (stereo not drawn) [2-ethylhexanoic acid] | inhibit proliferation and enhance differentiation | in vivo teratogenic activity |  |
| CCCC(CC(C)C)C(=O)O (stereo not drawn) [4 methyl-valproate] | have not been shown to affect differentiation | Non-teratogenic |  |
| C#CC[C@H](CCC)C(=O)O [(s)-4-yn-valproate] | inhibit proliferation and enhance differentiation | in vivo teratogenic activity |  |
| CCCCC(CCCC)C(=O)O [2-butylhexnoic acid] | inhibit proliferation and enhance differentiation | in vivo teratogenic activity |  |
| CCC=C(CCC)C(=O)O [2-en-valproate] | have not been shown to affect differentiation | Non-teratogenic |  |
| CCCCC(CCC)C(=O)O (stereo not drawn) [2-propylhexanoic acid] | inhibit proliferation and enhance differentiation | in vivo teratogenic activity |  |
| BDNF: brain-derived neurotrophic factor (R & D Systems), known promoter of neural stem cell differentiation (protein, UniProt P23560 19-247, looked up) Neurotrophic factor BDNF …: APMKEANIRGQGGLAYPGVRTHGTLESVNGPKAGSRGLTSLADTFEHVIEELLDEDQKVRPNEENNKDADLYTSRVMLSSQVPLEPPLLFLLEEYKNYLDAANMSMRVRRHSDPARRGELSVCDSISEWVTAADKKTAVDMSGGTVTVLEKVPVSKGQLKQYFYETKCNPMGYTKEGCRGIDKRHWNSQCRTTQSYVRALTMDSKKRIGWRFIRIDTSCVCTLTIKRGR |  |  | effect on neuronal differentiation (percentage of β-tubulin-III expressing cells) in words (rat cortical stem cells [1]): increased the percentage of β-tubulin-III expressing cells over control but was less effective than valproate; percentage of β-tubulin III expressing neurons (mean+SD) (rat cortical stem cells [1]; 0.5 mM valproate): 12.7+2%; neuronal differentiation [4]: 58%; neurite index (percentage of cells whose neurites total more than 20 μm in length) (rat cortical stem cells [5]): 38.3+1 |
| NT-3: Neurotrophin-3 (R & D Systems) (protein, UniProt P20783 139-257, looked up) Neurotrophin-3: YAEHKSHRGEYSVCDSESLWVTDKSSAIDIRGHQVTVLGEIKTGNSPVKQYFYETRCKEARPVKNGCRGIDDKHWNSQCKTSQTYVRALTSENNKLVGWRWIRIDTSCVCALSRKIGRT |  |  | effect on neuronal differentiation (percentage of β-tubulin-III expressing cells) in words (rat cortical stem cells [1]): didn't have any effect; percentage of β-tubulin III expressing neurons (mean+SD) (rat cortical stem cells [1]; 0.5 mM valproate): 8+1% |
